Earlier results on 3 molecules are cited in PMC10801393 (Clinical and Translational Science, 2024).

The conditions of data set [1]: tamoxifen 20 mg/day.
Assay in data set [2]: not given
The source holds these as a separate data set.

Like-named read-outs stand apart in the source and are kept apart here.

As to `CC/C(=C(\c1ccccc1)c1ccc(OCCN(C)C)cc1)c1ccccc1` [tamoxifen, Tamoxifen], the “steady‐state plasma concentration (C ss)” value in data set [1] (postmenopausal patients) is recorded as 201.23 ng/mL; in data set [1] (premenopausal patients) it was 116.95 ng/mL.

Regarding `Cc1ncc2n1-c1ccc(Cl)cc1C(c1ccccc1F)=NC2` [midazolam], the “oral clearance geometric mean” value (postmenopausal group) is given as 24.10 mL/min/kg and the “oral clearance geometric mean” value (premenopausal group) is listed as 30.09 mL/min/kg. Turning to `CC(C)(C(=O)O)c1ccc(C(O)CCCN2CCC(C(O)(c3ccccc3)c3ccccc3)CC2)cc1` (centres unmarked) [fexofenadine, Fexofenadine], the BDDCS class entry in data set [2] is recorded as “class 3”.
